Like-named read-outs stand apart in the source and are kept apart here.
Legend:
[1] = tested on: MARC145 (a subclone of African green monkey kidney cell line MA-104)
Description: (§1) The in vitro cytotoxicity of these carbazole derivatives against human melanoma (A875), human gastric adenocarcinoma cells (7901), and a subclone of African green monkey kidney cell line MA-104 (MARC145) cell lines was evaluated using the MTT assay. Briefly, A875, 7901, and MARC145 cells were seeded at 2 × 10^4 cells per well in 96-well plates and grown to subconfluence. After removal of the growth medium, six serial dilutions of each tested compound in 200 µL test medium were added. Plates were incubated at 37°C in a humidified atmosphere containing 5% CO2. After 72 h of exposure, the culture medium was removed and 30 µL of the MTT solution (5 mg/mL in PBS) was added to each well. The plate was further incubated for 4 h to allow MTT formazan formation. To dissolve the resulting MTT formazan, 50 µL of DMSO was added to each well, followed by thorough mixing with a microplate shaker. Absorbance at 570 nm was measured on a microplate reader (Thermo Scientific, MK3). All data were analyzed with SPSS software, and the 50% inhibitory concentrations (IC50) of each compound for the different cell lines were determined. All assays were performed in triplicate on three independent experiments.

[2] = tested on: 7901 (human gastric adenocarcinoma cells); test: In vitro cytotoxicity MTT assay, 7901 cells; conditions: for IC50 / inhibition at 40 µg/mL: Homo sapiens; for inhibition at 40 µg/mL: read-out: in vitro inhibition rate on 7901
Description: as §1

[3] = tested on: A875 (human melanoma)
Description: as §1

[4] = tested on: A875 (human melanoma); test: In vitro cytotoxicity MTT assay, A875 cells; conditions: for IC50 / inhibition at 40 µg/mL: Homo sapiens; for inhibition at 40 µg/mL: A875, read-out: in vitro inhibition rate on A875
Description: as §1

[5] = tested on: 7901, A875 and MARC145 cell lines; test: In vitro cytotoxicity MTT assay, overall rating over the tested cell lines; assay type: cell-based
Description: The relationship between concentration and inhibition rate is the key to whether a potential compound can be use as potential medicinal agents. It is very important to maintain good activity at low concentration. Based on the preliminary screening data, in order to verify the effect of concentration on the potential cytotoxic activities for all compounds, the inhibition activity data of the compounds at different concentrations were detected using the same method. All experiments were carried out on three kinds of cell lines with six concentrations of 40, 20, 10, 5, 1, and 0.5 μg/mL. The inhibition activities for highly potential compounds 7b, 11a, 11b, 14a, and 14b were described in Figure 4.

[6] = tested on: 7901 (human gastric adenocarcinoma cells)
Description: as §1

[7] = In vitro cytotoxicity MTT assay, MARC145 cells; conditions: African green monkey, MARC145 cells (subclone of kidney cell line MA-104)
Description: as §1

[8] = tested on: MARC145 (a subclone of African green monkey kidney cell line MA-104); test: In vitro cytotoxicity MTT assay, MARC145 cells; conditions: preliminary screening, 40 μg/mL
Description: as §1

[9] = tested on: MARC145 (a subclone of African green monkey kidney cell line MA-104); parameters: method as in Huang et al., 2021; conditions: previous work; ref Huang et al., 2021; cited from earlier work
[10] = tested on: A875 (human melanoma); parameters: method as in Huang et al., 2021; conditions: previous work; ref Huang et al., 2021; read-out: IC50 against A875; cited from earlier work
[11] = 72 h, read-out: In vitro cytotoxicity IC50, 7901
[12] = A875, 72 h, read-out: In vitro cytotoxicity IC50, A875
[13] = A875, read-out: A875 IC50 (Figure 5)

Compound	Inhibitory activity on tested cells, in words [5]	IC50 [2, 11] [µM]	IC50 at 72 h [7] [µM]	IC50 [4, 12] [µM]	melting point [°C]	further results
2-(6-Chloro-9H-carbazol-2-yl)-N-(2-((dimethylphosphoryl)amino)phenyl)propanamide [Compound 11b]	good inhibition activities on all tested cells	–	–	–	–	IC50 [1]: 17.3 ± 7.25 µM; in vitro inhibition rate on 7901 ([2]; concentration of 40 μg/mL): > 70%; IC50 [3]: 33.6 ± 9.48 µM; in vitro inhibition rate on A875 ([4]; concentration of 40 μg/mL): > 70%; IC50 [6]: 20.6 ± 3.3 µM
O=c1[nH]cc(F)c(=O)[nH]1 [Compound 5-FU, 5-fluorouracil, reference compound]	–	63.5 ± 4.92	86.3 ± 8.3	80.1 ± 6.61	–	–
Cc1c(C(=O)Nc2ccc(S(=O)(=O)Nc3ccccc3Oc3ccccc3)cc2)ccc2c1[nH]c1ccccc12 [Compound 7a, 1-Methyl-N-(4-(N-(2-phenoxyphenyl)sulfamoyl)phenyl)-9H-carbazole-2-carboxamide]	–	64.7 ± 15.1	51.5 ± 9.24	33.5 ± 1.63	78	–
Cc1c(C(=O)Nc2ccc(S(=O)(=O)Nc3ccc(Cl)nc3)cc2)ccc2c1[nH]c1ccccc12 [Compound 7b, N-(4-(N-(6-Chloropyridin-3-yl)sulfamoyl)phenyl)-1-methyl-9H-carbazole-2-carboxamide]	moderate inhibitory activity	58.1 ± 11.3	58.9 ± 16.7	23 ± 16.9	93	inhibition at 40 µg/mL [2]: > 70%; Toxicity to normal cells MARC-145 compared with cancer cells, in words [8]: less toxicity to normal cells MARC-145 than cancer cells; inhibition at 40 µg/mL [4]: > 70%
Cc1c(C(=O)NN(C(=O)c2ccccc2)C(C)(C)C)ccc2c1[nH]c1ccccc12 [Compound 7c, N'-Benzoyl-N'-(tert-butyl)-1-methyl-9H-carbazole-2-carbohydrazide]	–	–	58.4 ± 31.6	> 40	212	–
Cc1ccc(S(=O)(=O)N(NC(=O)c2ccc3c([nH]c4ccccc43)c2C)C(C)(C)C)cc1 [Compound 7d, N-(tert-Butyl)-4-methyl-N'-(1-methyl-9H-carbazole-2-carbonyl)benzenesulfonohydrazide]	decreases significantly	34.5 ± 9.9	18.7 ± 4.16	> 40	97	–
Cc1c(C(=O)NCC(=O)c2ccccc2)ccc2c1[nH]c1ccccc12 [Compound 7e, 1-Methyl-N-(2-oxo-2-phenylethyl)-9H-carbazole-2-carboxamide]	–	–	62.6 ± 28.2	> 40	153	–
CC(C(=O)Nc1ccccc1NS(C)(=O)=O)c1ccc2c(c1)[nH]c1ccc(Cl)cc12 (stereo not drawn) [Compound 11a, 2-(6-Chloro-9H-carbazol-2-yl)-N-(2-(methylsulfonamido)phenyl)propanamide]	good inhibition activities on all tested cells	21.9 ± 3.05	22.9 ± 14.3	36.7 ± 2.96	163	inhibition at 40 µg/mL [2]: > 70%; Toxicity to normal cells MARC-145 compared with cancer cells, in words [8]: less toxicity to normal cells MARC-145 than cancer cells; inhibition at 40 µg/mL [4]: > 70%
Cc1ccc(NNC(=O)C(C)c2ccc3c(c2)[nH]c2ccc(Cl)cc23)cc1 (stereo not drawn) [Compound 11c, 2-(6-Chloro-9H-carbazol-2-yl)-N'-(p-tolyl)propanehydrazide]	–	–	64 ± 20.1	> 40	188	–
CC(C(=O)NCCS(C)(=O)=O)c1ccc2c(c1)[nH]c1ccc(Cl)cc12 (stereo not drawn) [Compound 11d, 2-(6-Chloro-9H-carbazol-2-yl)-N-(2-(methylsulfonyl)ethyl)propanamide]	lost activity	–	> 40	> 40	149	–
CC(C(=O)Nc1ccc(S(=O)(=O)Nc2ncccn2)cc1)c1ccc2c(c1)[nH]c1ccc(Cl)cc12 (stereo not drawn) [Compound 11e, 2-(6-Chloro-9H-carbazol-2-yl)-N-(4-(N-(pyrimidin-2-yl)sulfamoyl)phenyl)propanamide]	–	–	> 40	> 40	157	–
COc1cccc(C=NNC(=O)C(C)c2ccc3c(c2)[nH]c2ccc(Cl)cc23)c1O (stereo not drawn) [Compound 14a, 2-(6-Chloro-9H-carbazol-2-yl)-N'-(2-hydroxy-3-methoxybenzylidene)propanehydrazide]	good inhibition activities on all tested cells	11.8 ± 1.26	7.47 ± 4.15	9.77 ± 8.32	217	inhibition at 40 µg/mL [2]: > 70%; Toxicity to normal cells MARC-145 compared with cancer cells, in words [8]: less toxicity to normal cells MARC-145 than cancer cells; IC50 [4, 13]: 9.77 ± 8.33 µM; inhibition at 40 µg/mL [4]: > 70%; Inhibition activity at low concentration, in words ([5]; concentration of 5 μg/mL): good activity
CC(C(=O)NN=CC=Cc1ccc(Cl)cc1)c1ccc2c(c1)[nH]c1ccc(Cl)cc12 (stereo not drawn) [Compound 14b, 2-(6-Chloro-9H-carbazol-2-yl)-N'-(3-(4-chlorophenyl)allylidene)propanehydrazide]	good inhibition activities on all tested cells	18.9 ± 2.64	19.6 ± 6.94	45.6 ± 30.6	186	inhibition at 40 µg/mL [2]: > 70%; inhibition at 40 µg/mL [4]: > 70%
CC(C(=O)NN=Cc1ccc2c(c1)OCO2)c1ccc2c(c1)[nH]c1ccc(Cl)cc12 (stereo not drawn) [Compound 14c, N'-(Benzo[d][1,3]dioxol-5-ylmethylene)-2-(6-chloro-9H-carbazol-2-yl)propanehydrazide]	–	–	> 40	> 40	240	–
CC(C(=O)NN=Cc1c[nH]c2ccccc12)c1ccc2c(c1)[nH]c1ccc(Cl)cc12 (stereo not drawn) [Compound 14d, N'-((1H-Indol-3-yl)methylene)-2-(6-chloro-9H-carbazol-2-yl)propanehydrazide]	–	–	42.4 ± 4.58	37.6 ± 8.15	209	–
COc1cc(C=NNC(=O)C(C)c2ccc3c(c2)[nH]c2ccc(Cl)cc23)ccc1O (stereo not drawn) [Compound 14e, 2-(6-Chloro-9H-carbazol-2-yl)-N'-(4-hydroxy-3-methoxybenzylidene)propanehydrazide]	almost lost its activity	–	> 40	> 40	239	IC50 ([2]; read-out: 7901 IC50 (Figure 5)): > 100 µM; IC50 [4, 13]: > 100 µM
CC(C(=O)NN=Cc1ccc(Cl)cc1)c1ccc2c(c1)[nH]c1ccc(Cl)cc12 (stereo not drawn) [Compound 14f, 2-(6-Chloro-9H-carbazol-2-yl)-N'-(4-chlorobenzylidene)propanehydrazide]	–	–	> 40	> 40	218	IC50 ([2]; read-out: 7901 IC50 (Figure 5)): > 100 µM; IC50 [4, 13]: > 100 µM
CC(C(=O)NN=Cc1ccc(Cl)cc1Cl)c1ccc2c(c1)[nH]c1ccc(Cl)cc12 (stereo not drawn) [Compound 14g, 2-(6-Chloro-9H-carbazol-2-yl)-N'-(2,4-dichlorobenzylidene)propanehydrazide]	–	38.8 ± 2.74	96.3 ± 63.3	> 40	241	–
COc1cccc(/C=N/NC(=O)c2ccc3c([nH]c4ccccc43)c2C)c1O [Compound 2021-7e]	–	–	–	–	–	IC50 [9]: 26.6 µM; IC50 [10]: 4.15 µM
